The source of these data is patent US4091211A, “Cephalosporins” (Hoffmann-La Roche Inc., priority 1974, dated 1978).

Structures can show the parent of a compound that is named as a salt.

In series [1] the test system is Staphylococcus aureus Schoch (Penicillin-sensitive). As to the kind of experiment: antimicrobial activity, CD50 in the mouse upon subcutaneous injection, Staphylococcus aureus Schoch. It is filed as in vivo. An excerpt: (§1) The results represent CD50 values in the mouse upon subcutaneous injection. In the table, compound A is (7R)-3- [[(1,4,5,6-tetrahydro-4-ethyl-5,6-dioxo-as-triazin-3-yl)-thio]methyl]-7-[2-(5-oxo-1,2,3-oxadiazolidin-3-yl)-acetamido]-3-cephem-4-carboxylic acid sodium salt and compound B is (7R)-3- [[(1,4,5,6-tetrahydro-4-ethyl-5,6-dioxo-as-triazin-3-yl)-thio]methyl]-7-[2(1-H-tetrazol-1-yl)-acetamido]-3-cephem-4-carboxylic acid sodium salt.

In series [2] the test system is Staphylococcus aureus 887 (Penicillin-sensitive). As to the kind of experiment: antimicrobial activity, CD50 in the mouse upon subcutaneous injection, Staphylococcus aureus 887. It is filed as in vivo.
Source text: as §1

The next series deals with Escherichia coli 1346. As to the kind of experiment: antimicrobial activity, CD50 in the mouse upon subcutaneous injection, Escherichia coli 1346. Type of series: in vivo.
Source text: as §1

A short description of series [3]: acute toxicity (LD50 i.v. in the mouse). As to conditions: in vivo, iv.

Regarding `CCn1c(SCC2=C(C(=O)O)N3C(=O)[C@@H](NC(=O)C[n+]4cc([O-])on4)[C@H]3SC2)n[nH]c(=O)c1=O` [A, sodium salt], the CD50 was found to be 0.25 mg/kg in series [1], 5.5 mg/kg in series [2] and 0.38 mg/kg in the series with Escherichia coli 1346. In series [3] (i.v. in the mouse, acute toxicity), the LD50 (as a rule, the dose at which mortality reaches 50%) fell in the range of 2000 to 4000 mg/kg.

`CCn1c(SCC2=C(C(=O)O)N3C(=O)[C@@H](NC(=O)Cn4cnnn4)[C@H]3SC2)n[nH]c(=O)c1=O` [B, (7R)-3-[[(1,4,5,6-tetrahydro-4-ethyl-5,6-dioxo-as-triazin-3-yl)-thio]methyl]-7-[2(1-H-tetrazol-1-yl)-acetamido]-3-cephem-4-carboxylic acid sodium salt]: the CD50 in series [1] is 0.6 mg/kg; in series [2], 3.2 mg/kg; in the series with Escherichia coli 1346, 0.9 mg/kg. Further, the LD50 in series [3] (mouse) is 1000 to 2000 mg/kg.
